The values that follow come from ChEMBL document CHEMBL4373728, “Primaquine derivatives: Modifications of the terminal amino group” (Eur J Med Chem, 2019).

The test system of experiment [1] is Escherichia coli. The experiment in a line: Anti-biofilm activity against Escherichia coli. The class given is functional.
In experiment [2] the test system is Escherichia coli. The experiment in a line: Antimicrobial activity against Escherichia coli. In kind it is functional.
Experiment [3] deals with Pseudomonas aeruginosa. The experiment in a line: Antimicrobial activity against Pseudomonas aeruginosa. In kind it is functional.
The subject of experiment [4] is Staphylococcus aureus. The experiment in a line: Antimicrobial activity against Staphylococcus aureus. In kind it is functional.
Experiment [5] has as its system Human coronavirus 229E. The experiment in a line: Antiviral activity against Human coronavirus 229E. In kind it is functional, organism-based.
In experiment [6] the test system is Plasmodium berghei. Briefly: Antimalarial activity against Plasmodium berghei infected in human Huh7 cells after 1 hr by luciferase reporter gene assay. Particulars: Huh-7, 1 h. The class given is functional, organism-based.
The subject of experiment [7] is Plasmodium falciparum. Briefly: Antimalarial activity against erythrocytic stage of Plasmodium falciparum by HRP2 assay. The class given is functional, organism-based.
Experiment [8] deals with Plasmodium falciparum. The experiment in a line: Antimalarial activity against chloroquine-sensitive Plasmodium falciparum 3D7 by HRP2 assay. The class given is functional, organism-based.
Experiment [9] has as its system Plasmodium falciparum. The experiment in a line: Antimalarial activity against Plasmodium falciparum Dd2 by HRP2 assay. In kind it is functional, organism-based.
Experiment [10] relates to Mammalian orthoreovirus 1. Briefly: Antiviral activity against Reovirus-1. The class given is functional, organism-based.
Experiment [11] concerns Sindbis virus. The experiment in a line: Antiviral activity against Sindbis virus. The class given is functional, organism-based.
For experiment [12], the system named is Punta Toro virus. Briefly: Antiviral activity against Punta Toro virus. In kind it is functional, organism-based.
The subject of experiment [13] is Coxsackievirus B4. The experiment in a line: Antiviral activity against Coxsackievirus B4. In kind it is functional, organism-based. Particulars: Enterovirus B.
For experiment [14], the system named is Staphylococcus aureus. Briefly: Anti-biofilm activity against Staphylococcus aureus 630 after 24 hrs in aerobic condition by broth microdilution assay. The class given is functional.
The subject of experiment [15] is Staphylococcus aureus. Briefly: Anti-biofilm activity against Staphylococcus aureus 3202 after 24 hrs in aerobic condition by broth microdilution assay. In kind it is functional.

In brackets after ≈: the same amount, converted by molar mass.

In [1], `COc1cc(NC(C)CCCNC(=O)NC(C(=O)NC(c2ccccc2)c2ccccc2)c2ccc(Cl)cc2)c2ncccc2c1` (centres undefined) gave an MBEC of 6.25 to 50 µg/mL. The MIC in experiment [2] is 25 µg/mL (≈ 39.3 µM); in experiment [3], 25 µg/mL (≈ 39.3 µM); in [4], 6.5 µg/mL (≈ 10.2 µM).
In experiment [5], `COc1cc(NC(C)CCCNC(=O)NNC(=O)/C=C/c2cccc(C(F)(F)F)c2)c2ncccc2c1` (centres undefined) gave an EC50 of 7.9 to 15 µM.
On the same count and under the same terms, the figure for `COc1cc(NC(C)CCCNC(=O)NNC(=O)/C(C)=C/c2ccccc2)c2ncccc2c1` (centres undefined) is 7.9 to 15 µM.
Same read-out and setting: to `COc1cc(NC(C)CCCNC(=O)NNC(=O)/C=C/c2cc(C(F)(F)F)cc(C(F)(F)F)c2)c2ncccc2c1` (centres undefined) belongs 7.9 to 15 µM; to `COc1cc(NC(C)CCCNC(=O)NNC(=O)/C=C/c2ccc3c(c2)OCO3)c2ncccc2c1` (centres undefined), 7.9 to 15 µM.
Turning to `COc1cc(NC(C)CCCNC(=O)NC(CC(C)C)C(=O)NC(c2ccccc2)c2ccccc2)c2ncccc2c1` (centres undefined), the MIC in [4] is 6.5 µg/mL (≈ 11.2 µM).
For `COc1cc(NC(C)CCCNC(=O)NC(C(=O)NC(c2ccccc2)c2ccc(Cl)cc2)c2ccccc2)c2ncccc2c1` (centres undefined), the MBEC in experiment [1] was in the range of 6.25 to 50 µg/mL. Moreover, the MIC in [2] and in experiment [3] was 25 µg/mL (≈ 39.3 µM) throughout.
As for `COc1cc(NC(C)CCCNC(=O)NNC(=O)/C=C/c2ccc(C(F)(F)F)cc2)c2ncccc2c1` (centres undefined), the 50% effective concentration (EC50) in [5] fell in the range of 7.9 to 15 µM.
Take `COc1cc(NC(C)CCCNC(=O)/C=C/C(=O)Nc2ccc(C(F)(F)F)cc2)c2ncccc2c1` (centres undefined): the IC50 fell in the range of 110 to 390 nM in experiment [6], 7.74 to 18.4 µM in [7], 7.74 to 18.4 µM in experiment [8] and 7.74 to 18.4 µM in experiment [9].
In the case of `COc1cc(NC(C)CCCNC(=O)/C=C/C(=O)Nc2cccc(C(F)(F)F)c2)c2ncccc2c1` (centres undefined), the IC50 in [6] lay within 110 to 390 nM; in experiment [7] it was 7.74 to 18.4 µM; in experiment [8], 7.74 to 18.4 µM; in experiment [9], 7.74 to 18.4 µM. The EC50 was 3.1 to 5.5 µM in experiment [10], 3.1 to 5.5 µM in experiment [11], 3.1 to 5.5 µM in experiment [12] and 3.1 µM in experiment [13].
Regarding `COc1cc(NC(C)CCCNC(=O)/C=C/C(=O)Nc2ccc(F)cc2)c2ncccc2c1` (centres undefined), the IC50 was in the range of 110 to 390 nM in experiment [6], 7.74 to 18.4 µM in [7], 7.74 to 18.4 µM in experiment [8] and 7.74 to 18.4 µM in experiment [9]. Moreover, the MBEC in [14] and in [15] was 6.3 µg/mL each time.
Regarding `COc1cc(NC(C)CCCNC(=O)/C=C/C(=O)Nc2cccc(Cl)c2)c2ncccc2c1` (centres undefined), the IC50 lay in the range of 110 to 390 nM in experiment [6], 7.74 to 18.4 µM in experiment [7], 7.74 to 18.4 µM in experiment [8] and 7.74 to 18.4 µM in [9]. Moreover, the EC50 in experiment [10], in experiment [11] and in [12] was 3.1 to 5.5 µM each time.
`COc1cc(NC(C)CCCNC(=O)/C=C/C(=O)Nc2cccc(F)c2)c2ncccc2c1` (centres undefined): the 50% inhibitory concentration (IC50) in [6] lay within 110 to 390 nM; in experiment [7] it was 7.74 to 18.4 µM; in experiment [8] it was 7.74 to 18.4 µM; in experiment [9] it was 7.74 to 18.4 µM. The MBEC in [14] and in experiment [15] was 6.3 µg/mL in each case.
In the case of `COc1cc(NC(C)CCCNC(=O)/C=C/C(=O)Nc2ccc(Cl)cc2)c2ncccc2c1` (centres undefined), the IC50 in experiment [6] lay within 110 to 390 nM; in experiment [7], 7.74 to 18.4 µM; in experiment [8], 7.74 to 18.4 µM; in [9], 7.74 to 18.4 µM.
`COc1cc(NC(C)CCCN)c2ncccc2c1` (centres undefined) [PRIMAQUINE] showed an IC50 in experiment [6] of 8400 nM.
